Laboratory results reported in US20160242416A1, “FUNGICIDAL ISOXAZOLINE CARBINOLS” (E I DU PONT DE NEMOURS AND COMPANY, priority 2015, published 2016).

What was measured:
[1] = test system: Puccinia recondita f sp. tritici; experiment: Test F: wheat leaf rust, preventive spray on wheat seedlings; conditions: 10 ppm; wheat leaf rust; 100 = 100% disease control, 0 = no control
[2] = test system: Phytophthora infestans; assay type: in vivo; conditions: 10 ppm; tomato late blight; 100 = 100% disease control, 0 = no control
[3] = test system: Erysiphe graminis f sp. tritici; experiment: Test G: wheat powdery mildew, preventive spray on wheat seedlings; conditions: 10 ppm; wheat powdery mildew; 100 = 100% disease control, 0 = no control
[4] = test system: Zymoseptoria tritici; experiment: Test E: wheat leaf blotch, preventive spray on wheat seedlings; conditions: 10 ppm; wheat leaf blotch; 100 = 100% disease control, 0 = no control
[5] = test system: Plasmopara viticola; experiment: Test A: grape downy mildew, preventive spray on grape seedlings; assay type: in vivo; conditions: 10 ppm, 100 = 100% disease control, 0 = no control
Text: A dash (-) indicates no test results.

[6] = test system: Stagonospora nodorum; experiment: Test D: wheat glume blotch, preventive spray on wheat seedlings; conditions: 10 ppm; wheat glume blotch; 100 = 100% disease control, 0 = no control
[7] = test system: Botrytis cinerea; experiment: Test B: gray mold, preventive spray on tomato seedlings; conditions: 10 ppm; gray mold on tomato; 100 = 100% disease control, 0 = no control

| Structure (SMILES) | Test F rating (% disease control) [1] [%] | Test C rating (% disease control) [2] [%] | Test G rating (% disease control) [3] [%] | Test E rating (% disease control) [4] [%] | Test A rating (% disease control) [5] [%] | Test D rating (% disease control) [6] [%] | Test B rating (% disease control) [7] [%] |
| --- | --- | --- | --- | --- | --- | --- | --- |
| OC(Cn1cncn1)(C1=NOC(Cn2ccc(-c3ccc(C(F)(F)F)cc3)n2)C1)c1ccc(Cl)cc1 (single isomer, unassigned) [Compound 68] | 99 | 0 | 95 | 2 | 3 | 0 | 0 |
| C=CCC(O)(Cn1cncn1)C1=NOC(c2ccc(Cl)cc2)C1 (single isomer, unassigned) [Compound 84] | 9 | 0 | 95 | 0 | 11 | 73 | 94 |
